In patent publication US6384027B1, “Phthalocyanine analogs” (QinetiQ Limited, priority 1997, dated 2002):

Assay: Solubility in organic solvents
Format: physicochemical
Conditions: in solvents such as THF, toluene, cyclohexane and dichloromethane

Question: For `CCCCCCCCc1ccc(CCCCCCCC)c2c1-c1nc-2nc2[nH]c(nc3nc(nc4[nH]c(n1)c1ccncc41)-c1c(CCCCCCCC)ccc(CCCCCCCC)c1-3)c1c(CCCCCCCC)ccc(CCCCCCCC)c21` [1a, 1,4,8,11,15,18-(hexaoctyl)tribenzo-3,4-pyridinoporphyrazine], which solubility is on record?
Answer: good solubility
